Measured values reported in US20250140406A1, “CLASSIFYING TUMORS AND PREDICTING RESPONSIVENESS” (Oncocyte Corporation, priority 2022, published 2025).

How the values were obtained:
[1] = test system: cancer cell lines classified IM, MSL, M; assay: PRISM screen compound sensitivity correlated with IM, MSL and M subtype of cell lines (101 gene signature); assay type: cell-based; conditions: for IM Corr test: correlation of PRISM compound sensitivity with IM subtype correlation; for M Corr test: correlation of PRISM compound sensitivity with M subtype correlation; for MSL Corr test: correlation of PRISM compound sensitivity with MSL subtype correlation; for TNBCType train: training cell set (371 cell lines), 101 gene signature; for TNBCType test: classification of association of compound sensitivity with IM, MSL and M cell line classes, test data set
[2] = test system: cancer cell lines, DetermaIO classes; assay: Association of PRISM compound sensitivity with DetermaIO (DTIO) cell line classes; assay type: cell-based
[3] = correlation of PRISM compound sensitivity with DTIO; test cell set
[4] = correlation of PRISM compound sensitivity with DTIO; training cell set
[5] = subtype (IM, MSL or M) with which compound sensitivity is negatively correlated
[6] = subtype (IM, MSL or M) assigned to the compound by negative correlation of PRISM sensitivity with subtype
[7] = correlation of PRISM compound sensitivity with DTIO (DetermaIO); test cell set (188 cell lines)
[8] = correlation of PRISM compound sensitivity with DTIO (DetermaIO); training cell set (371 cell lines)
[9] = association of compound sensitivity with DetermaIO classes; test data set
[10] = association of compound sensitivity with DetermaIO classes; training data set
[11] = correlation of PRISM compound sensitivity with DTIO; test cell set (188 cell lines)
[12] = correlation of PRISM compound sensitivity with DTIO; training cell set (371 cell lines)
[13] = correlation of compound sensitivity with DTIO; test set
[14] = correlation of compound sensitivity with DTIO; training set

| SMILES | DTIO Corr test [2, 3] | DTIO Corr train [2, 4] | IM Corr test ([1]; test cell set (188 cell lines)) | M Corr test ([1]; test cell set (188 cell lines)) | MSL Corr test ([1]; test cell set (188 cell lines)) | DTIO Corr test [2, 7] | DTIO Corr train [2, 8] | further results |
| --- | --- | --- | --- | --- | --- | --- | --- | --- |
| COc1ccc(-c2cc(=O)c3c(OC)c(OC)c(OC)c(OC)c3o2)cc1 [tangeritin] | −0.01838 | −0.09411 |  |  |  |  |  | IM Corr test ([1]; test cell set): −0.06559; M Corr test ([1]; test cell set): 0.04891; MSL Corr test ([1]; test cell set): −0.06252 |
| Cc1occc(=O)c1[O-].Cc1occc(=O)c1[O-].[O]=[V+2] [bis(maltolato)oxo-vanadium(IV)] | 0.09031 | 0.1485 | 0.04745 | −0.1743 | −0.04621 |  |  | DTIO Corr test ([2]; correlation of compound sensitivity with DetermaIO (DTIO), test set): 0.09031; DTIO Corr train ([2]; correlation of compound sensitivity with DetermaIO (DTIO), training set): 0.1485 |
| COc1cc2ncnc(Nc3ccc(O)c(Br)c3)c2cc1OC [WHI-P154] | −0.06543 | −0.1245 | −0.227 | 0.2466 | 0.2152 |  |  |  |
| Cc1ccc(-n2sc(=O)n(Cc3ccc(F)cc3)c2=O)cc1 [CCG-50014] | −0.03813 | 0.0404 | 0.03964 | −0.1198 | −0.2063 |  |  |  |
| CC(C)(C)NCc1cc(Nc2ccnc3cc(Cl)ccc23)c2c(c1O)CCCC2.O=P(O)(O)O.O=P(O)(O)O [naphthoquine-phosphate] | 0.04517 | 0.03212 | −0.01598 | 0.03443 | −0.02275 |  |  | TNBCType train [1, 5]: MSL |
| CCCCCCCCCCC(C)(C)C(=O)Nc1c(OC)cc(OC)cc1OC [CI-976] |  |  | 0.06082 | −0.082 | −0.03363 | 0.03532 | 0.09198 | TNBCType train [1, 6]: MSL |
| C#Cc1cccc(Nc2ncnc3cc(OCCOC)c(OCCO)cc23)c1 [OSI-420] |  |  | −0.01776 | 0.1416 | 0.3027 | 0.1184 | −0.1185 |  |
| Nc1nccc2c1ncn2C1C=C(CO)C(O)C1O (stereo not drawn) [3-deazaneplanocin-A] |  |  | −0.02722 | 0.1507 | 0.09034 | −0.05245 | −0.1309 |  |
| O=C1NC(=O)C(c2cnc3ccccn23)=C1c1cn2c3c(cc(F)cc13)CN(C(=O)N1CCCCC1)CC2 [LY2090314] |  |  | −0.01913 | 0.0417 | −0.00714 | 0.003829 | −0.08353 | TNBCType train [1, 6]: MSL |
| N#CCNC(=O)c1ccc(-c2ccnc(Nc3ccc(N4CCOCC4)cc3)n2)cc1 [cyt387] |  |  | 0.06763 | −0.1142 | −0.1416 | 0.000569 | −0.03421 | TNBCType train [1, 6]: MSL |
| COc1cc(-c2ccc(=O)[nH]n2)ccc1OC(F)F [K37561857] |  |  |  |  |  |  |  | TNBCType test [1]: MSL; DTIO Corr test [2, 9]: 0.1699; DTIO Corr train [2, 10]: 0.1782 |
| Cl.NC1CCN(c2cccc(Cl)n2)CC1 [SR-57227A] | 0.01635 | −0.1048 | −0.02879 | −0.08168 | −0.00449 |  |  |  |
| c1ccc2sc(N3CCN(Cc4ccc5c(c4)OCO5)CC3)nc2c1 |  |  | 0.03417 | −0.06017 | −0.05087 | 0.0115 | 0.00776 | TNBCType train [1, 6]: MSL |
| CCN1/C(=C/C(C)=O)Sc2ccc(OC)cc21 [TG-003] |  |  | −0.1049 | 0.03396 | −0.1032 |  |  | TNBCType train ([1]; subtype (IM, MSL or M) the PRISM compound sensitivity is associated with): MSL; DTIO Corr test [2, 11]: −0.05387; DTIO Corr train [2, 12]: −0.04255 |
| O=C1C(=O)N(Cc2ccc(Cl)c(Cl)c2)c2ccccc21 [apoptosis-activator-II] | 0.07557 | 0.02708 | 0.1037 | −0.1455 | −0.1886 |  |  | TNBCType train [1, 5]: MSL |
| C[CH2][Hg][S]c1ccccc1C(=O)[O-].[Na+] [thiomersal] |  |  | 0.1417 | −0.2551 | −0.1237 | 0.0287 | −0.05708 | DTIO Corr test [2, 13]: 0.0287; DTIO Corr train [2, 14]: −0.05708 |
| O=c1[nH]cnc2ccccc12 [4-HQN] |  |  | −0.06704 | 0.04595 | 0.1063 | 0.05447 | −0.1475 |  |
| C[C@@]1(O)[C@H](O)[C@@H](CO)O[C@H]1n1cnc2c(NC3CCCC3)nc(Cl)nc21 [2′-MeCCPA] |  |  | −0.06271 | 0.03452 | −0.04413 | −0.0753 | −0.01341 | TNBCType train [1, 6]: MSL |
| CC(C)CCN1c2nc(Nc3cc(F)c(O)c(F)c3)ncc2N(C)C(=O)C1C (stereo not drawn) [BI-D1870] | 0.01854 | −0.09163 | −0.01584 | 0.01001 | 0.02005 |  |  |  |
| COc1cccc(Nc2ncnn3ccc(CN4CC[C@@H](N)[C@H](O)C4)c23)c1 [BMS-690514] |  |  | −0.1648 | 0.2486 | 0.3466 | 0.01346 | −0.1666 | DTIO Corr test ([2]; correlation of compound sensitivity with DTIO, test set): 0.01346; DTIO Corr train ([2]; correlation of compound sensitivity with DTIO, training set): −0.1666; DTIO Corr test [2, 13]: 0.01346; DTIO Corr train [2, 14]: −0.1666 |
| C[C@@H](Oc1ccc2[nH]nc(/C=C/c3cnn(CCO)c3)c2c1)c1c(Cl)cncc1Cl [K17203476] |  |  |  |  |  |  |  | TNBCType test [1]: MSL; DTIO Corr test [2, 9]: −0.0838; DTIO Corr train [2, 10]: −0.1449 |
| CN[C@@H]1C[C@H]2O[C@@](C)([C@@H]1OC)n1c3ccccc3c3c4c(c5c6ccccc6n2c5c31)C(=O)N[C@H]4O [7-hydroxystaurosporine] | −0.07646 | −0.1515 |  |  |  |  |  | IM Corr test ([1]; test cell set): −0.06588; M Corr test ([1]; test cell set): 0.06924; MSL Corr test ([1]; test cell set): 0.09088 |
| C[C@H]1Oc2cc(cnc2N)-c2c(nn(C)c2C#N)CN(C)C(=O)c2ccc(F)cc21 [PF-06463922] | −0.00728 | −0.07689 | −0.1219 | −0.02078 | −0.05668 |  |  | TNBCType train [1, 5]: MSL |
| c1ccc(C(NCc2cccnc2)(c2ccccc2)c2ccccc2)cc1 [UCL-2077] | −0.07511 | −0.2006 |  |  |  |  |  | IM Corr test ([1]; test cell set): −0.1051; M Corr test ([1]; test cell set): 0.08781; MSL Corr test ([1]; test cell set): 0.1128 |
| CNC(=O)CN1CCC(Oc2cc3c(Nc4cccc(Cl)c4F)ncnc3cc2OC)CC1 [AZD8931] |  |  | −0.09307 | 0.2208 | 0.4034 |  |  | DTIO Corr test [2, 11]: 0.04159; DTIO Corr train [2, 12]: −0.08735 |
